The record followed here is doi:10.1101/2025.11.13.687868v1 (biorxiv, 2025).

In experiment [1] the target is T1, GPX1 (Homo sapiens, UniProt P07203).
T1 sequence (P07203 1-203): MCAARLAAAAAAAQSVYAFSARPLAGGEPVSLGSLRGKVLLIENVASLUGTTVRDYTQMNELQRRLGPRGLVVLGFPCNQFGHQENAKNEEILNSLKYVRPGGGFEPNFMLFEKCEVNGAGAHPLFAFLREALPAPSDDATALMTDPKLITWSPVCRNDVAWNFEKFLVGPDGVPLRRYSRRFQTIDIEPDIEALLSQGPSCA
As to the kind of experiment: GR-coupled NADPH fluorescence assay. Type of experiment: biochemical.

For experiment [2], the target named is T2, GPX4 (purified recombinant Sec-containing human GPX4) (Homo sapiens, UniProt P36969).
T2 sequence (P36969 28-197): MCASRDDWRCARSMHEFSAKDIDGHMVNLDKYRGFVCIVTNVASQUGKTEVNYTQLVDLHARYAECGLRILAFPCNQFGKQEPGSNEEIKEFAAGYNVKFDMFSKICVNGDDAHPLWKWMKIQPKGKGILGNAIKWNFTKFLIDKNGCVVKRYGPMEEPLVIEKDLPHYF
As to the kind of experiment: GR-coupled NADPH fluorescence assay. Type of experiment: biochemical.

pIC50: −log10 of the molar value.

Broadly, the pIC50 is the IC50 on a negative log10 scale, so that one unit is a factor of ten. With `O=C(O)CC(S)C(=O)O` (centres unmarked) [thiomalic acid], the values for the pIC50 in experiment [1] and in experiment [2] were 5.17 and 4.26, respectively.
